Source: ChEMBL document CHEMBL5518240 (J Med Chem, 2024)
Calls of active or inactive are those of the source. The rule behind the calls is not given here.

Experiments:
[1] = molecular target: T1, Protein cereblon/CREB-binding protein (Homo sapiens, UniProt Q92793+Q96SW2); experiment: PROTAC activity at CBP/CRBN in human VCaP cells assessed as protein degradation incubated for 4 hrs by Western blot analysis; assay type: cell-based
[2] = molecular target: T1, Protein cereblon/CREB-binding protein; experiment: PROTAC activity at CBP/CRBN in human VCaP cells assessed as maximal protein degradation at 1 uM incubated for 4 hrs by Western blot analysis relative to control; assay type: cell-based
[3] = molecular target: T2, Protein cereblon/Histone acetyltransferase p300 (Homo sapiens, UniProt Q09472+Q96SW2); experiment: PROTAC activity at p300/CRBN in human VCaP cells assessed as protein degradation incubated for 4 hrs by Western blot analysis; assay type: cell-based
Target sequence in this assay (Q09472 whole entry): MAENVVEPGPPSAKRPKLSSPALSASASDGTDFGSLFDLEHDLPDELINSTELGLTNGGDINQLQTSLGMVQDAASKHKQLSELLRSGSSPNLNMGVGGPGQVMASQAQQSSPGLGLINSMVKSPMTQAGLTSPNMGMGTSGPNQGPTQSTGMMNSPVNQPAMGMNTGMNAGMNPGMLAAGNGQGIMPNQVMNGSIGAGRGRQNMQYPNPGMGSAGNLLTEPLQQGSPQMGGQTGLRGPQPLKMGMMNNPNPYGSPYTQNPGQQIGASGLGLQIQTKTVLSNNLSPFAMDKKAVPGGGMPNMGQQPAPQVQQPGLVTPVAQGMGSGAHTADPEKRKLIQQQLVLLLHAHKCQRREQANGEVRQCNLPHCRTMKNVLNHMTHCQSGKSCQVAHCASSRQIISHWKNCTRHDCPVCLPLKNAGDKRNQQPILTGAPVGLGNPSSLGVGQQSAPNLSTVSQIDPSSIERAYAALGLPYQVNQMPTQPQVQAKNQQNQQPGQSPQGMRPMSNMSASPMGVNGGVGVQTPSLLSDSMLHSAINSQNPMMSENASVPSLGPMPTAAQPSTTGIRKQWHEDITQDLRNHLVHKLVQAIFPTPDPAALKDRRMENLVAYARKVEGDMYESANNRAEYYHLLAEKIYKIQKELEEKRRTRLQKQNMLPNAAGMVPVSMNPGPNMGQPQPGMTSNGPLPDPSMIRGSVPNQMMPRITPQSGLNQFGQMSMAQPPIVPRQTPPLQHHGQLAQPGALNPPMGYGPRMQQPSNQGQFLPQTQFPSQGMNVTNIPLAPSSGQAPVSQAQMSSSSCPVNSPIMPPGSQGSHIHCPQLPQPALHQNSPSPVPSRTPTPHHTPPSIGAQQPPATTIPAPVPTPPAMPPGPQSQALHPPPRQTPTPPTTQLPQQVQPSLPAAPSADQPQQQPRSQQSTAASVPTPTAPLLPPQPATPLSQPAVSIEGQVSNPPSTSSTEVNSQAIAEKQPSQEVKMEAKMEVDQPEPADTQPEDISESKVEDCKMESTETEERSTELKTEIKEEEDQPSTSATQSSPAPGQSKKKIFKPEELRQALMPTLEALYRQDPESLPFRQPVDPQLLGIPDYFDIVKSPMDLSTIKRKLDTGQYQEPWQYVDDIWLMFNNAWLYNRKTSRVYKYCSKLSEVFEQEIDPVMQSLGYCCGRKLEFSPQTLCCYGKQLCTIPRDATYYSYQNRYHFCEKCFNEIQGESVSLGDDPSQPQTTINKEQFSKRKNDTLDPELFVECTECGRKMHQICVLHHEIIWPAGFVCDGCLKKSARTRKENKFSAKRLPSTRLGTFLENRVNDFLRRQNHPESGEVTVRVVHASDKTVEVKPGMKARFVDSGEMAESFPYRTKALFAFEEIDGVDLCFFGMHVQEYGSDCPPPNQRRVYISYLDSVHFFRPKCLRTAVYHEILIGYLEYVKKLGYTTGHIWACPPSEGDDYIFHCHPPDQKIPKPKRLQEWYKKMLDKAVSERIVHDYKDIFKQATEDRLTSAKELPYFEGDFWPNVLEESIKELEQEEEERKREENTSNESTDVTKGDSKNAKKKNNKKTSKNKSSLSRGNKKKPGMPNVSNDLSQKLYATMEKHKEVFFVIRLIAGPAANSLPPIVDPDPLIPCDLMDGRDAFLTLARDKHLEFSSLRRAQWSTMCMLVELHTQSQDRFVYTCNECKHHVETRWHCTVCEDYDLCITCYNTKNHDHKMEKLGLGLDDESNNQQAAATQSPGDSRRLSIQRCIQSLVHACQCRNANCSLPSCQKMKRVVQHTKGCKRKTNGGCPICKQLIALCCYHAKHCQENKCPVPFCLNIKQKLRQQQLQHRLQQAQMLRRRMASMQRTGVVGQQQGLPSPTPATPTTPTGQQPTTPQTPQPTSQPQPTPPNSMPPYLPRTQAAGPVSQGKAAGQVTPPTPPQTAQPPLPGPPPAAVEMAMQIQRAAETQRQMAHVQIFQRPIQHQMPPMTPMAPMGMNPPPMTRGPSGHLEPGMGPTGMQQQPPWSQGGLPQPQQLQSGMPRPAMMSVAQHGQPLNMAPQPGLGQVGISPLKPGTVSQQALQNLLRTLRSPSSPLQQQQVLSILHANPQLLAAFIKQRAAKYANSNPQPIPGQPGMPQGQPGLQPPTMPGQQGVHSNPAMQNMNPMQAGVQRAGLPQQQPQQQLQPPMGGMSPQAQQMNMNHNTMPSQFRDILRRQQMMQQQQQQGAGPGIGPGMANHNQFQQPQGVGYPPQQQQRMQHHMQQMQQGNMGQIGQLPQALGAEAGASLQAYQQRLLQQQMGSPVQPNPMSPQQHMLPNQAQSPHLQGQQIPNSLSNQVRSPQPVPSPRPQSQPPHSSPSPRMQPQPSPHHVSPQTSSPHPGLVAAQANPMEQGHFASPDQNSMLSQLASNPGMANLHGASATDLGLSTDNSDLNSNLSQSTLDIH
Target sequence in this assay (Q96SW2 whole entry): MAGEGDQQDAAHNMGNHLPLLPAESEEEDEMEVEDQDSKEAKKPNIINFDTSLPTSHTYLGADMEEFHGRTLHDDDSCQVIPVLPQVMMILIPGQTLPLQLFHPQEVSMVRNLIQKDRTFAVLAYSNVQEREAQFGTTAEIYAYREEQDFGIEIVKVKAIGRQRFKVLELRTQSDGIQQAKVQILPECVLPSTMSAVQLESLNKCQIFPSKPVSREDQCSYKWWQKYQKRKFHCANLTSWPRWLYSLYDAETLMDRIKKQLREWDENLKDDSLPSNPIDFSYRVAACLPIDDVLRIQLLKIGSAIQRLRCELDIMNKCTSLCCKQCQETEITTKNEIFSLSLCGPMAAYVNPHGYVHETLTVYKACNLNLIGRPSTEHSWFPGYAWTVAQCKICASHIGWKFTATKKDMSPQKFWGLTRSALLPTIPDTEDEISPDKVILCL

[4] = molecular target: T2, Protein cereblon/Histone acetyltransferase p300; experiment: PROTAC activity at p300/CRBN in human VCaP cells assessed as maximal protein degradation at 1 uM incubated for 4 hrs by Western blot analysis relative to control; assay type: cell-based
[5] = molecular target: T1, Protein cereblon/CREB-binding protein; experiment: Potency index, ratio of […] DC50 to test compound DC50 for PROTAC activity at CBP/CRBN in human VCaP cells assessed as protein degradation incubated for 4 hrs by Western blot analysis; assay type: cell-based
[6] = molecular target: T2, Protein cereblon/Histone acetyltransferase p300; experiment: Potency index, ratio of CPBD-409 DC50 to test compound DC50 for PROTAC activity at p300/CRBN in human VCaP cells assessed as protein degradation incubated for 4 hrs by Western blot analysis; assay type: cell-based
[7] = Oral plasma exposure in SCID mouse at 5 mg/kg, po measured after 1 hr; assay type: ADME, organism-based; details: for concentration at 1 h: SCID, plasma
[8] = Oral plasma exposure in SCID mouse at 5 mg/kg, po measured after 3 hrs; assay type: ADME, organism-based; details: for concentration at 3 h: SCID, plasma
[9] = Oral plasma exposure in SCID mouse at 5 mg/kg, po measured after 6 hrs; assay type: ADME, organism-based; details: for concentration at 6 h: SCID, plasma
[10] = test system: VCaP; experiment: Antiproliferative activity against AR positive human VCaP cells assessed inhibition of cell growth measured after 4 days by CellTiter-Glo Luminescent cell viability assay; assay type: functional, cell-based; details: 96 h
[11] = test system: CWR22R; experiment: Antiproliferative activity against AR positive human 22Rv1 cells assessed inhibition of cell growth measured after 4 days by CellTiter-Glo Luminescent cell viability assay; assay type: functional, cell-based; details: 22Rv1, 96 h
[12] = test system: LNCaP; experiment: Antiproliferative activity against AR positive human LNCaP cells assessed inhibition of cell growth measured after 4 days by CellTiter-Glo Luminescent cell viability assay; assay type: functional, cell-based; details: 96 h
[13] = test system: VCaP; experiment: Reduction in KLK3 gene expression in AR positive human VCaP cells assessed as reduction in mRNA level at 1000 nM measured after 6 hrs by qRT-PCT analysis; assay type: functional, cell-based
[14] = test system: VCaP; experiment: Reduction in AR gene expression in AR positive human VCaP cells assessed as reduction in mRNA level at 1000 nM measured after 6 hrs by qRT-PCT analysis; assay type: functional, cell-based
[15] = test system: VCaP; experiment: Reduction in c-Myc gene expression in AR positive human VCaP cells assessed as reduction in mRNA level at 1000 nM measured after 6 hrs by qRT-PCT analysis; assay type: functional, cell-based
[16] = test system: LNCaP; experiment: Reduction in KLK3 gene expression in AR positive human LNCaP cells assessed as reduction in mRNA level at 1000 nM measured after 6 hrs by qRT-PCT analysis; assay type: functional, cell-based
[17] = test system: LNCaP; experiment: Reduction in AR gene expression in AR positive human LNCaP cells assessed as reduction in mRNA level at 1000 nM measured after 6 hrs by qRT-PCT analysis; assay type: functional, cell-based
[18] = test system: LNCaP; experiment: Reduction in c-Myc gene expression in AR positive human LNCaP cells assessed as reduction in mRNA level at 1000 nM measured after 6 hrs by qRT-PCT analysis; assay type: functional, cell-based
[19] = test system: CWR22R; experiment: Reduction in KLK3 gene expression in AR positive human 22Rv1 cells assessed as reduction in mRNA level at 1000 nM measured after 6 hrs by qRT-PCT analysis; assay type: functional, cell-based
[20] = test system: CWR22R; experiment: Reduction in AR gene expression in AR positive human 22Rv1 cells assessed as reduction in mRNA level at 1000 nM measured after 6 hrs by qRT-PCT analysis; assay type: functional, cell-based
[21] = test system: CWR22R; experiment: Reduction in c-Myc gene expression in AR positive human 22Rv1 cells assessed as reduction in mRNA level at 1000 nM measured after 6 hrs by qRT-PCT analysis; assay type: functional, cell-based
[22] = test system: VCaP; experiment: Antitumor activity against human VCaP cells xenografted in CB17 SCID mouse model assessed as tumor growth inhibition at 20 mg/kg, po qd scheduled 5 days in a week measured on day 63; assay type: functional; details: 1512 h, time 63 day, read-out: TGI

Row | DC50 [1] [nM] | Emax [2] [%] | DC50 [3] [nM] | Emax [4] [%] | concentration at 1 h [7] [ng/mL] | concentration at 3 h [8] [ng/mL] | concentration at 6 h [9] [ng/mL] | Structure (SMILES) | further results
1 | 1.4 | 92 | 1.2 | 93 |  |  |  | CC(=O)N1CCc2c(c(N3CCCc4cc(-c5cnn(C)c5)c(C(F)F)cc43)nn2C2CCN(C(=O)CCCNc3cccc4c3C(=O)N(C3CCC(=O)NC3=O)C4=O)CC2)C1 (stereo not drawn) | 
2 | 1.2 | 94 | 1.2 | 94 |  |  |  | CC(=O)N1CCc2c(c(N3CCCc4cc(-c5cnn(C)c5)c(C(F)F)cc43)nn2[C@H]2CC[C@H](CN3CCN(c4cc5c(cc4F)C(=O)N(C4CCC(=O)NC4=O)C5=O)CC3)CC2)C1 (stereo partly drawn) | Ratio [5]: 4; Ratio [6]: 4
3 | < 0.2 | > 95 | < 0.2 | > 95 |  |  |  | CC(=O)N1CCc2c(c(N3CCCc4cc(-c5cnn(C)c5)c(C(F)F)cc43)nn2C2CCN(C(=O)Nc3ccc4c(c3)C(=O)N(C3CCC(=O)NC3=O)C4=O)CC2)C1 (stereo not drawn) | Cp ([7]; in vivo, po, 5 mg/kg, 1 h, BLD = below limit of detection): Bld; Cp ([8]; in vivo, po, 5 mg/kg, 3 h, BLD = below limit of detection): Bld; Cp ([9]; in vivo, po, 5 mg/kg, 6 h, BLD = below limit of detection): Bld
4 | 0.4 | 115 | 0.2 | > 95 |  |  |  | CC(=O)N1CCc2c(c(N3CCCc4cc(-c5cnn(C)c5)c(C(F)F)cc43)nn2C2CCN(C(=O)CCCCCNc3cccc4c3C(=O)N(C3CCC(=O)NC3=O)C4=O)CC2)C1 (stereo not drawn) | 
5 | 0.7 | > 95 | 2 | > 95 | 2.6 | 1.4 | 1.5 | CC(=O)N1CCc2c(c(N3CCCc4cc(-c5cnn(C)c5)c(C(F)F)cc43)nn2C2CCN(C(=O)CNc3ccc4c(c3)C(=O)N(C3CCC(=O)NC3=O)C4=O)CC2)C1 (stereo not drawn) | 
6 | 1.1 | > 95 | 0.4 | > 95 | 23.8 | 16.7 | 7.4 | CC(=O)N1CCc2c(c(N3CCCc4cc(-c5cnn(C)c5)c(C(F)F)cc43)nn2C2CCN(CC3CN(c4ccc5c(c4)C(=O)N(C4CCC(=O)NC4=O)C5=O)C3)CC2)C1 (stereo not drawn) | 
7 | 1.3 | > 95 | 1.1 | > 95 | 1050 | 962 | 613 | CC(=O)N1CCc2c(c(N3CCCc4cc(-c5cnn(C)c5)c(C(F)F)cc43)nn2C2CCN(C3CN(c4ccc5c(c4)C(=O)N(C4CCC(=O)NC4=O)C5=O)C3)CC2)C1 (stereo not drawn) | 
8 | 0.9 | > 95 | 0.4 | > 95 | 5.1 | 3.2 | 2 | CC(=O)N1CCc2c(c(N3CCCc4cc(-c5cnn(C)c5)c(C(F)F)cc43)nn2C2CCN(C(=O)CCNc3ccc4c(c3)C(=O)N(C3CCC(=O)NC3=O)C4=O)CC2)C1 (stereo not drawn) | 
9 | 700 | 53 | > 1000 | 33 |  |  |  | CC(=O)N1CCc2c(c(N3CCCc4cc(-c5cnn(C)c5)c(C(F)F)cc43)nn2[C@H]2CC[C@H](CN3CCN(c4cccc5c4C(=O)N(C4CCC(=O)NC4=O)C5=O)CC3)CC2)C1 (stereo partly drawn) | 
10 | > 1000 | < 50 | > 1000 | < 50 |  |  |  | CC(=O)N1CCc2c(c(N3CCCc4cc(-c5cnn(C)c5)c(C(F)F)cc43)nn2C2CCN(C(=O)Nc3cccc4c3C(=O)N(C3CCC(=O)NC3=O)C4=O)CC2)C1 (stereo not drawn) | 
11 |  |  |  |  |  |  |  | CNC(=O)c1ccc(N2C(=S)N(c3ccc(C#N)c(C(F)(F)F)c3)C(=O)C2(C)C)cc1F [ENZALUTAMIDE] | IC50 [10]: 9500 nM; IC50 [11]: > 1000 nM; IC50 [12]: 8000 nM; Activity [13]: Active; Activity [14]: inactive; Activity [15]: Active; Activity [16]: Active; Activity [17]: inactive; Activity [18]: Active; Activity [19]: Active; Activity [20]: inactive; Activity [21]: Active; inhibition in vivo at 20 mg/kg [22]: 2.8%
12 | 0.4 | > 95 | 0.1 | > 95 | 5.4 | 2.7 | 1.6 | CC(=O)N1CCc2c(c(N3CCCc4cc(-c5cnn(C)c5)c(C(F)F)cc43)nn2C2CCN(C(=O)CCCCNc3cccc4c3C(=O)N(C3CCC(=O)NC3=O)C4=O)CC2)C1 (stereo not drawn) | 
13 | 0.1 | > 95 | < 0.1 | > 95 |  |  |  | CC(=O)N1CCc2c(c(N3CCCc4cc(-c5cnn(C)c5)c(C(F)F)cc43)nn2[C@H]2CC[C@H](CN3CCN(c4ccc5c(c4)CN(C4CCC(=O)NC4=O)C5=O)CC3)CC2)C1 (stereo partly drawn) | 
14 | > 1000 | < 50 | > 1000 | < 50 |  |  |  | CC(=O)N1CCc2c(c(N3CCCc4cc(-c5cnn(C)c5)c(C(F)F)cc43)nn2C2CCN(C(=O)c3cccc4c3C(=O)N(C3CCC(=O)NC3=O)C4=O)CC2)C1 (stereo not drawn) | 
15 | 8 | 88 | 18 | 81 |  |  |  | CC(=O)N1CCc2c(c(N3CCCc4cc(-c5cnn(C)c5)c(C(F)F)cc43)nn2C2CCN(C(=O)CCNc3cccc4c3C(=O)N(C3CCC(=O)NC3=O)C4=O)CC2)C1 (stereo not drawn) | 
16 | 1.1 | > 95 | 0.6 | > 95 | 122 | 122 | 82.2 | CC(=O)N1CCc2c(c(N3CCCc4cc(-c5cnn(C)c5)c(C(F)F)cc43)nn2C2CCN(C3CCN(c4ccc5c(c4)C(=O)N(C4CCC(=O)NC4=O)C5=O)CC3)CC2)C1 (stereo not drawn) | 
17 | 0.4 | > 95 | 0.4 | > 95 |  |  |  | CC(=O)N1CCc2c(c(N3CCCc4cc(-c5cnn(C)c5)c(C(F)F)cc43)nn2C2CCN(C(=O)CCCCNc3ccc4c(c3)C(=O)N(C3CCC(=O)NC3=O)C4=O)CC2)C1 (stereo not drawn) | 
18 | 0.5 | > 95 | 0.4 | > 95 | 183 | 235 | 149 | CC(=O)N1CCc2c(c(N3CCCc4cc(-c5cnn(C)c5)c(C(F)F)cc43)nn2C2CCN(C3CC4(C3)CN(c3ccc5c(c3)C(=O)N(C3CCC(=O)NC3=O)C5=O)C4)CC2)C1 (stereo not drawn) | 
19 | 1.1 | > 95 | 0.4 | > 95 | 493 | 312 | 328 | CC(=O)N1CCc2c(c(N3CCCc4cc(-c5cnn(C)c5)c(C(F)F)cc43)nn2C2CCN(C3CC4(CCN(c5ccc6c(c5)C(=O)N(C5CCC(=O)NC5=O)C6=O)CC4)C3)CC2)C1 (stereo not drawn) | 
20 | > 1000 | < 50 | > 1000 | < 50 |  |  |  | CC(=O)N1CCc2c(c(N3CCCc4cc(-c5cnn(C)c5)c(C(F)F)cc43)nn2C2CCN(C(=O)c3ccc4c(c3)C(=O)N(C3CCC(=O)NC3=O)C4=O)CC2)C1 (stereo not drawn) | 
